Measurements published in patent publication US20110033430A1, “METHODS FOR THE INDUCTION OF A CELL TO ENTER THE ISLET 1+ LINEAGE AND A METHOD FOR THE EXPANSION THEREOF” (THE GENERAL HOSPITAL CORPORATION, priority 2007, published 2011).
Entries after “also recorded” stand apart in the source; their conditions may differ.

How the values were obtained:
[1] = test system: postnatal isl1+ cardiovascular progenitors; assay: Expansion of postnatal isl1+ cardiovascular progenitors, isl1 immunostaining; assay type: cell-based, mouse; set-up: increase of number of isl1+ progenitors versus control: dose or concentration left out as unconfirmed; conditions: for number of isl1+ progenitors: isl1 immunostaining, versus control
Experimental: Immunohistochemical Analyses and lacZ Staining. Cells in culture or paraffin embedded sections were fixed with 4% paraformaldehyde and subjected to immunostaining. For mouse embryo cryosections, they were saturated with 20% sucrose followed by section and 2% PFA fix for 10 min at room temperature. The following primary antibodies were used in this study: isl1 (mouse monoclonal antibody, clone 39.4D5, clone 2D6 (Developmental Studies Hybridoma Bank, 1:100), cardiac troponin T (mouse monoclonal antibody, NeoMarkers, 1:200), smooth muscle myosin heavy chain (rabbit polyclonal, Biomedical Technologies Inc., 1:100), smooth muscle actin (mouse monoclonal, clone 1A4, Dako, 1:100; rabbit polyclonal, Abcam), phosphohistone H3 (rabbit polyclonal, Upstate). Alexa Fluor 488- or Alexa Fluor 594-conjugated secondary antibodies specific to the appropriate species were used (Molecular Probes, 1:350). 3D reconstruction was done using Winsuf from Surfdriver Software. For immunoperoxidase staining, the VECTASTAIN ABC® system (VECTOR Laboratories) was used, accordingly to the vendors' instructions. 5 μm frozen sections and cultured cells were fixed with 0.2% and 0.05% glutaraldehyde respectively for 10 min at 4° C. followed by 3 times wash with PBS. LacZ stainings were then performed on these samples by incubating with X-Gal solution containing 40 mM HEPES, pH 7.4, 5 mM K3(Fe(CN)6), 5 mM K4(Fe(CN)6), 2 mM MgCl2, 15 mM NaCl, and 1 mg/ml X-Gal. For LacZ staining on EB-derived clones expanded on CMC, 0.02% NP-40 was added to the X-Gal solution for better permeabilization. When combining LacZ staining with immunoperoxidase analyses, samples were processed first for LacZ staining at room temperature over night, followed by a re-fixation with 4% paraformaldehyde prior to the immunoperoxidase stainings for specific epitopes or by re-fixation with 2% gluteraldehyde to perform EM studies.
Statistic Analysis. Data were analyzed with two-tailed Student's t test and the results reported are statistically significant with p value <0.05. Standard error of the mean (SEM) is given for each mean value. For immunofluorescent analyses for postnatal isl1^+ cardiovascular progenitors, the cells within the whole well in an 8-well chamber slide were examined for Isl1 expression to obtain better statistic comparison.
Although there was only a small increase over the control, the effect of these compounds was highly reproducible and statistically significant (p<0.05, 0.01, or 0.001, FIG. 2C). […] Two of these compounds were unknown (compound A and compound B), and the third was 6-bromoindirubin-3′-oxime (BIO), previously shown to be an inhibitor of GSK-3 (Meijer et al., 2003). BIO has been recently shown to promote self-renewal of both human and mouse ES cells through activation of the wnt/β-catenin pathway in combination with other signaling inputs (Sato et al., 2004). The inventors explored the role of BIO on the renewal of isl1^+ progenitors.
Wnt/β-Catenin Pathway Plays a Pivotal Role in the Control of Isl1+ Progenitor Expansion. […] The inventors examined whether Wnt3a, a well-established ligand in the Wnt/β-catenin pathway (Logan and Nusse, 2004), was able to expand postnatal isl1^+ progenitors.

CMC = assay: Cleaved caspase-3 immunostaining (apoptosis); assay type: cell-based, mouse; conditions: treated CMC
Source text: To further validate the specificity of BIO function, the inventors tested two other ATP-competitive GSK-3-specific inhibitors: an acetoxime analog of BIO and 1-Azakenpaullone (Kunick et al., 2004; Meijer et al., 2003). […] Taken together, the inventors have discovered that BIO promotes the expansion of isl1+ progenitors by inhibiting GSK-3 activity.

[2] = test system: postnatal isl1+ progenitors in cardiac mesenchymal cells (CMC); assay: High-throughput chemical screening: β-gal activity quantified by luminescence (Beto-Glo); assay type: cell-based, mouse; conditions: CMC with isl1+ progenitors, 4 days treatment, versus DMSO control
Experimental: Progenitors and High-Throughput Chemical Screening. […] Briefly, 30-40 hearts from 1-5 day-old isl1-mER-Cre-mER/R26R pups were used to prepare CMC, containing isl1+ progenitors marked by β-galactosidase. 4-OH-TM (Sigma), active form of tamoxifen, was added to the culture 1 day after plating at 1 μm. These were expanded for 7 days, trypsinized, and seeded at a density of 3,000 cells per well in 384-well plates.
Isolation of Murine Postnatal Cardiac Progenitors and High-throughput Chemical Screening. […] Briefly, 30-40 hearts from 1-5 day-old is1-mER-Cre-mER/R26R pups were used to prepare CMC, containing isl1^+ progenitors marked by β-galactosidase. 4-OH-TM (Sigma), active form of tamoxifen, was added to the culture 1 day after plating at 1 μm. These were expanded for 7 days, then trypsinized, and seeded at a density of 3,000 cells per well in a 384-well plate.
To find cardiac mesenchymal cells (CMC)-derived environmental cues involved in the renewal of isl1+ progenitors, the inventors developed a high-throughput chemical screening system, based on the coculture of CMC with postnatal isl1+ progenitors (FIG. 2A). […] The inventors used this library to screen for small molecules that would expand the rare population of postnatal isl1+ progenitors.

[3] = test system: human neonatal isl1+ progenitors; assay: Expansion of human neonatal isl1+ progenitors, isl1 immunostaining; assay type: cell-based; conditions: human neonatal CMC, 4 days
Experimental: Isolation and Cell Culture Conditions of Human Postnatal Cardiac Progenitors. Biopsies are cut in small pieces and washed in solution A (10 mM Hepes, 35 mM NaCl, 10 mM glucose, 134 mM sucrose, 16 mM Na2HPO4, 25 mM NaHCO3, 7.75 mM KCl, 1.18 mM KH2PO4, pH 7.4), supplemented with 30 mM 2,3 butanedione 2-monoxime and 0.5 mM EGTA. First digestion step is performed in solution A supplemented with 0.5% BSA, 200 UI/ml of collagenase type II (Worthington) and 6 UI/ml protease type XXIV (Sigma) for 20 min at 37° C. to remove red blood cells and cell debris. Four digestion steps are performed in solution A supplemented with 400 UI/ml collagenase type V for 20 min at 37° C. and centrifuged at 30×g for 1 min. The supernatant is neutralized from the collagenase by adding ⅕ of NCS (newborn calf serum) and are centrifuged at 1300 rpm for 3-5 min. Pellet is resuspended in DMEM supplemented with 10% NCS, 5% FBS and Pen-Strep, and cells are seeded on chamber slide. BIO was added to the culture at different doses in complete progenitor medium and cultured for 4 days prior to immunostaining for Isl1.
In order to test whether BIO was capable of expanding human neonatal isl1^+ progenitors, human neonatal CMC were isolated from the biopsies of patients with congenital heart defects into single cells and cultured for 4 days in the presence or absence of BIO.

[4] = test system: anterior heart field isl1+ progenitors (AHF-GFP ES cells); assay: Expansion of ES cell-derived anterior heart field GFP+/isl1+ cells on CMC feeder, FACS; assay type: cell-based, mouse; conditions: 7 days on CMC feeder, versus control
Experimental: Differentiation was induced by forming embryoid bodies (EB's) in hanging drops of 600 cells in 15 μL of media without LIF. On day 6, the EB's were trypsinized into single cell suspension and sorted on the basis of GFP expression using flow cytometry. GFP positive cells were plated on a neonatal cardiac mesenchymal feeder layer for 7 days with one of four conditions: DMSO, BIO, and conditioned media from either control cells (L-Cells) or cells overexpressing wnt3A. After 7 days of expansion on the cardiac mesenchymal feeder layer, the cells were trypsinized and FACS sorted. Differentiation of the GFP positive cells was triggered as follow: into myocytes, on fibronectin by using DMEM/M199 (4:1 ratio) medium containing 10% horse serum and 5% FBS; into SM cells, on fibronectin by using DMEM/F12 containing B27 supplement, 2% FBS, and 10 ng/ml EGF.
To directly determine whether Wnt ligands are secreted from the CMC to promote the renewal of isl1^+ progenitors in a paracrine manner, the inventors developed an in vitro reconstitution of the mesenchymal niche.
To further characterize the nature of the CMC-derived cues, the inventors tested the ability of Wnt3a to reproduce this effect.

other protein kinases = conditions: Plotkin et al., 2003; cited from earlier work
[5] = test system: isl1-nlacZ knockin ES cell-derived precursors; assay: Prespecification of mesodermal precursors toward MICPs on CMC feeder, single β-gal+ cells after 24 hr; assay type: cell-based, mouse; conditions: 24 hr on CMC feeder, versus control
Experimental: Immunohistochemical Analyses and lacZ Staining. Cells in culture or paraffin embedded sections were fixed with 4% paraformaldehyde and subjected to immunostaining. For mouse embryo cryosections, they were saturated with 20% sucrose followed by section and 2% PFA fix for 10 min at room temperature. The following primary antibodies were used in this study: isl1 (mouse monoclonal antibody, clone 39.4D5, clone 2D6 (Developmental Studies Hybridoma Bank, 1:100), cardiac troponin T (mouse monoclonal antibody, NeoMarkers, 1:200), smooth muscle myosin heavy chain (rabbit polyclonal, Biomedical Technologies Inc., 1:100), smooth muscle actin (mouse monoclonal, clone 1A4, Dako, 1:100; rabbit polyclonal, Abcam), phosphohistone H3 (rabbit polyclonal, Upstate). Alexa Fluor 488- or Alexa Fluor 594-conjugated secondary antibodies specific to the appropriate species were used (Molecular Probes, 1:350). 3D reconstruction was done using Winsuf from Surfdriver Software. […]
The wnt/β-Catenin Pathway Regulates the Prespecification, Expansion, and Differentiation of Isl1+ Cardiovascular Progenitors. […] To score the effect of the CMC feeder on the prespecification of mesodermal precursors toward MICPs, the inventors quantified the single b-gal^+ cells 24 hr after treatment with various reagents (FIG. 7A). […]

murine Wls/Evi = molecular target: T1, murine Wls/Evi (Mus musculus, UniProt Q6DID7); assay: Wnt reporter (superTOPFLASH) coculture with siRNA-transfected Wnt3a-producing cells, luciferase; assay type: cell-based; conditions: coculture with transfected Wnt3a-secreting cells, versus control
T1 construct: endogenous in cells; host or cells: Wnt3a-producing (Wnt3a-secreting) cell line (ATCC), cocultured with superTOPFLASH Wnt reporter cells
T1 sequence (Q6DID7 1-541): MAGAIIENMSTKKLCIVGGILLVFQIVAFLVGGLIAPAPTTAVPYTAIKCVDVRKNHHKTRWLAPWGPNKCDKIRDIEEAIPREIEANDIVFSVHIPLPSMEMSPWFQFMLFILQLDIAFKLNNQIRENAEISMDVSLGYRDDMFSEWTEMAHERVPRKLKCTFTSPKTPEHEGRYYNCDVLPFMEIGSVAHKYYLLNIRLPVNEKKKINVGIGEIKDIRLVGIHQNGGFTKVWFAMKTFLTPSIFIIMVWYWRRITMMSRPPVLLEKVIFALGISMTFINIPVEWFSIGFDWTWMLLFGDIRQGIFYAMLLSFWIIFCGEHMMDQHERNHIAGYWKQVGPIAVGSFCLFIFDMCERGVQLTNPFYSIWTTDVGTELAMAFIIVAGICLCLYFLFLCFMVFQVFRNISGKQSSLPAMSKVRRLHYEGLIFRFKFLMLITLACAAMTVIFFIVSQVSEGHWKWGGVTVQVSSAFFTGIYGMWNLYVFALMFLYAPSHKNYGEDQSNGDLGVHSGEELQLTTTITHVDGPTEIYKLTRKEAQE
Source text: Production of Reagents for Wnt Pathway. Wnt3a or control-conditioned medium was produced as following. A Wnt3a-secreting cell line (ATCC) was allowed to grow to conflency and subcultured at 1:20 ratio prior to replenish with fresh medium. Three batches of conditioned medium were harvested every 48 hrs. Dkk1-conditioned medium was produced by transiently transfecting a Dkk1-expressing cDNA (generously provided by Dr. Randall T. Moon) into the HEK293T cell line with FuGENE 6 (Roche). The supernatant was harvested 72 hrs after transfection. A Wnt-reporter cell line, superTOPFLASH, was a generous gift from Dr. Randall T. Moon.
Small hairpin RNAs (shRNAs) oligonucleotide sequences were designed based on the following target sequences: siWLS-A ([…]) (SEQ ID NO:1) and siWLS-B (GGGTTACCGTGATGATATG, (SEQ ID NO:2) and subcloned into the retro-viral vector, RNAi-Ready pSIREN-RetroQ-DsRed-Express (Clontech) according to vendor's instructions. Negative control shRNA annealed oligonucleotide was provided by the vendor and cloned to the same vector. Retro-viral siRNAi particles were produced by transiently transfect these vectors into the packaging cell line EcoPack 2-293 cells with GENE 6 (Roche). Viral supernatant was harvested 72 hrs after transfection.
The inventors confirmed this effect by blocking the secretion of Wnt ligands from the CMC. […]

O=C1Cc2c([nH]c3ccc(Br)cc23)-c2ncccc2N1 [1-Azakenpaullone]
number of isl1+ progenitors [1]: substantially increased

O=C1Nc2cc(Br)ccc2/C1=C1/Nc2ccccc2/C1=N\O [BIO, 6-bromoindirubin-3′-oxime]
apoptosis, cleaved caspase-3 immunostaining (CMC): no appreciable apoptosis | β-gal activity (luciferase activity) [2]: significantly increase | number of human Isl1+ progenitors [3]: markedly increased | expansion of GFP+/Isl1+ anterior heart field cells [4]: marked expansion; also recorded: greater expansion | increase of number of isl1+ progenitors versus control [1]: 7 fold | cluster formation of isl1+ progenitors, increase versus control ([1]; BIO at 2.5 μM): 11.6 fold | number of isl1+ progenitors [1]: substantially increase; also recorded: increased the number of isl1^+ progenitors in a dose-dependent manner | formation of isl1+ clusters ([1]; versus control treated samples): promoted isl1^+ progenitors to form large clusters

CC(=O)O/N=C1/C(=C2/C(=O)Nc3cc(Br)ccc32)Nc2ccccc21 [acetoxime analog of BIO]
number of isl1+ progenitors [1]: substantially increased

GSK-3 peptide inhibitor: cell-permeable and substrate-competitive GSK-3 peptide inhibitor (GKEAPPAPPQSP)
inhibitory effect on other protein kinases (other protein kinases): negligible inhibitory effect | number of isl1+ progenitors [1]: significantly expand

siWLS-A: siRNA/shRNA against murine Wls/Evi, target sequence CACAAATCCTTTCTACAGTAT (the letters are possibly those of the target site)
formation of MICPs (single β-gal+ cells) [5]: significantly increased | luciferase activity of Wnt reporter cells (Wnt3a secretion) (murine Wls/Evi): significant reduction; also recorded: significantly decreased

siWLS-B: siRNA/shRNA against murine Wls/Evi, target sequence GGGTTACCGTGATGATATG (the letters are possibly those of the target site)
luciferase activity of Wnt reporter cells (Wnt3a secretion) (murine Wls/Evi): significant reduction; also recorded: significantly decreased
